In patent US11786534B2 (TAIHO PHARMACEUTICAL CO., LTD., priority 2019, dated 2023):
Read-outs that look alike come from different tables or passages of the source.

What was measured:
[1] = target: T1, human EGFR (d746-750/C797S) (Homo sapiens, UniProt P00533, C797S/DEL746-750); test: Inhibitory activity against EGFR (d746-750/C797S) kinase; format: biochemical
T1 construct: purchased SignalChem
Outline: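 Recombinant human EGFR d746-750/C797S in 13.5 mM Tris pH 7.5 with 2 mM DTT and 0.009% Tween-20. Reaction ran 60 min with 14 μM ATP, 20 mM MgCl2 and 12.5 mM MnCl2, stopped by 40 mM EDTA. IC50 in nM.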

[2] = target: T2, human EGFR (L858R/T790M/C797S) (Homo sapiens, UniProt P00533, C797S/L858R/T790M); test: Inhibitory activity against EGFR (L858R/T790M/C797S) kinase; format: biochemical
T2 construct: made in house; host or cells: Sf9 insect cells, baculovirus
Outline: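 GST-tagged cytoplasmic domain of human EGFR L858R/T790M/C797S, expressed in Sf9 insect cells via baculovirus and glutathione-purified. Kinase reaction run at 0.5 μM ATP final; IC50 (nM) determined per compound.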

[3] = target: Ba/F3-EGFR (L858R/T790M/C797S) (Homo sapiens, UniProt P00533, T790M/C797S/L858R, cells depend on it); test: Growth inhibition of cell line expressing EGFR (L858R/T790M/C797S); format: cell-based, mouse; details: read-out: BaF3_EGFR (L858R/T790M/C797S) IC50 value
Source text: (§1) Test for inhibitory activity against the growth of cell lines expressing wild-type and mutated EGFRs (in vitro)
(§2) (1) Mouse cell line Ba/F3-EGFR (d746-750/T790M/C797S) transfected with and stably expressing EGFR (d746-750/T790M/C797S), mouse cell Ba/F3-EGFR (L858R/T790M/C797S) transfected with and stably expressing EGFR (L858R/T790M/C797S), and mouse cell line Ba/F3-EGFR (WT) transfected with and stably expressing wild-type EGFR were each suspended in RPMI-1640 cell culture medium (RPMI-1640, 10% FBS, 100 unit/ml penicillin, 0.1 mg/ml streptomycin). In the case of the mouse cell line Ba/F3-EGFR (WT), RPMI-1640 cell culture medium containing EGF at a final concentration of 50 ng/ml was used to suspend this cell line. It should be noted that the mouse cell line Ba/F3-EGFR (d746-750/T790M/C797S) transfected with and stably expressing EGFR (d746-750/T790M/C797S), the mouse cell line Ba/F3-EGFR (L858R/T790M/C797S) transfected with and stably expressing EGFR (L858R/T790M/C797S) and the mouse cell line Ba/F3-EGFR (WT) transfected with and stably expressing wild-type EGFR were prepared by using nucleotide sequences encoding the proteins of SEQ ID NOs: 1 and 2 in accordance with Test Example 1 in WO2018/079310, These cell suspensions were seeded in wells of 96-well flat -bottomed plates. The compounds of the present invention were dissolved in DMSO, and serial dilutions of these test compounds were prepared with DMSO (1000-fold of the final concentration). Each test compound solution in DMSO or DMSO alone was diluted with RPMI-1640 cell culture medium for each cell line, and this dilution was added to wells of the cell culture plate such that the final concentration of DMSO was 0.1%, followed by culture at 37° C. for 3 days in a 5% carbon dioxide gas-containing incubator. Before and after addition of each test compound solution in DMSO, the number of cells was counted using the CellTiter-Glo® system (Promega) on the basis of the protocol recommended by Promega.
(§3) In each cell line, the rate of cell growth inhibition was calculated according to the equation shown below in wells to which each test compound was added at different concentrations. Moreover, the inhibition rate at each concentration was plotted for each test compound, and the concentration of each test compound required to give 50% cell survival rate, i.e., IC50 (nM) was determined by curve fitting software XLfit (IDBS).
(§4) Cell survival rate (%)=T/C×100
(§5) T: emission intensity in a well cultured for 3 days after addition of a test compound solution
(§6) C: emission intensity in a well cultured for 3 days after addition of DMSO
(§7) In accordance with the same procedures as shown in Test Example 2, the compounds of the present invention were tested for their inhibitory activity against the growth of the cell hoes expressing wild-type and mutated EGFRs.

Ba/F3-EGFR (WT) = Ba/F3-EGFR (WT) (Homo sapiens, UniProt P00533); test: Growth inhibition of cell line expressing wild-type EGFR; format: cell-based, mouse; details: read-out: BaF3_EGFR (WT) IC50 value
Source text: as §1, §2, §3, §4, §5, §6, §7

[4] = Test Example 1, Table 4, ATP 14 μM, 60 minutes
[5] = Test Example 1, Table 3, ATP 0.5 μM
[6] = Test Example 4, Table 13, same procedures as Test Example 2
[7] = Test Example 2, Table 7, culture 3 days, CellTiter-Glo
[8] = Test Example 2, Table 7, culture 3 days, EGF 50 ng/ml, CellTiter-Glo

T1 sequence (P00533 with tags, fused parts or gaps DEL746-750/C797S): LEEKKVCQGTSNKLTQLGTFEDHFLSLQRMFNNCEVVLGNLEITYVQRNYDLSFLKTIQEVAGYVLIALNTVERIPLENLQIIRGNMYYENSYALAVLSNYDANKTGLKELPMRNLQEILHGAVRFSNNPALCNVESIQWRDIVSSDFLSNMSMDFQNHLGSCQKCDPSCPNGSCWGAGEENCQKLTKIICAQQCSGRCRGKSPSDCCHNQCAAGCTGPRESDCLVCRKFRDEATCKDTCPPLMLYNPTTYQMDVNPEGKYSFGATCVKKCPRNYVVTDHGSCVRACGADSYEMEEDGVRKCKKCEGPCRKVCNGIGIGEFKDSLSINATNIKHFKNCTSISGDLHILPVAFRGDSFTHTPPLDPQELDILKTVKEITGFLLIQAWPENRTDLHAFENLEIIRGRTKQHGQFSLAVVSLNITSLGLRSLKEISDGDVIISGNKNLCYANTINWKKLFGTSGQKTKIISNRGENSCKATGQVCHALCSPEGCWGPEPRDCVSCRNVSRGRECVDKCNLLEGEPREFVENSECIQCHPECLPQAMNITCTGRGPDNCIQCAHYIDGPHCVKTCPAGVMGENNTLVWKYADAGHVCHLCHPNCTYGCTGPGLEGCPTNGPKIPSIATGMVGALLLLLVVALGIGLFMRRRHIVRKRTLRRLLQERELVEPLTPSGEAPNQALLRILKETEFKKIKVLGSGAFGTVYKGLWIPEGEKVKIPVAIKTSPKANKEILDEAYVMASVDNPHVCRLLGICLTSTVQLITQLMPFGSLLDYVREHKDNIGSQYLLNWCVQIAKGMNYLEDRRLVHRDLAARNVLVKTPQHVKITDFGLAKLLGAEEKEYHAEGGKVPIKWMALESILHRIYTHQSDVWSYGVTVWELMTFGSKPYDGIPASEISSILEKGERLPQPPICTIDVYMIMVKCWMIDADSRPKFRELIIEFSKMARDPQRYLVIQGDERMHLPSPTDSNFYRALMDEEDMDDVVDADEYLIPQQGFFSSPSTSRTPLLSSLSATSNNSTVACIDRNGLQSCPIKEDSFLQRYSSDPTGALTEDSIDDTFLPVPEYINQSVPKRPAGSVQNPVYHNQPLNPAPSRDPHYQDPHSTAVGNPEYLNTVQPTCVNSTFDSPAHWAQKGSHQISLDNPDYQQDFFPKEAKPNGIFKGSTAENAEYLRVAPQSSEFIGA
T2 sequence (P00533 with tags, fused parts or gaps T790M/C797S/L858R): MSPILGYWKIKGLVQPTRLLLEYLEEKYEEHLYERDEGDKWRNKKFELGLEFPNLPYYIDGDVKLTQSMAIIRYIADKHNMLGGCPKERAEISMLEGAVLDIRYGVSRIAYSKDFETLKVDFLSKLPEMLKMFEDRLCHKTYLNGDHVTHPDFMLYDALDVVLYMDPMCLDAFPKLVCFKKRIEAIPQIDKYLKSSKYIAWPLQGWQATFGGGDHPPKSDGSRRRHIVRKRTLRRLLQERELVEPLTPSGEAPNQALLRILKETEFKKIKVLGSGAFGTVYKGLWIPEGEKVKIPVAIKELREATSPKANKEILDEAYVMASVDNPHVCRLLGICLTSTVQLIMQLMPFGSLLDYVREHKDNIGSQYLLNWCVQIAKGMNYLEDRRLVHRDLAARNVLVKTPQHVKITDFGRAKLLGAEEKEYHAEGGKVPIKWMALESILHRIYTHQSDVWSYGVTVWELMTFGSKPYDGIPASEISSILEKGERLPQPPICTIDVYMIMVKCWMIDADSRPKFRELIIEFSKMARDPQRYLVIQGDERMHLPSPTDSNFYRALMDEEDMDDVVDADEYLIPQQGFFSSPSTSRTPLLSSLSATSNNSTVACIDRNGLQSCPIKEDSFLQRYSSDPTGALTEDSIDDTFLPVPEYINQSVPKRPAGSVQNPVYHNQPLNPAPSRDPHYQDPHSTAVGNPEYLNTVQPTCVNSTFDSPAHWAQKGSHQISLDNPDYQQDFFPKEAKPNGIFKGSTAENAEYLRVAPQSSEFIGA
Sequence of Ba/F3-EGFR (WT) (P00533 whole entry, change not shown): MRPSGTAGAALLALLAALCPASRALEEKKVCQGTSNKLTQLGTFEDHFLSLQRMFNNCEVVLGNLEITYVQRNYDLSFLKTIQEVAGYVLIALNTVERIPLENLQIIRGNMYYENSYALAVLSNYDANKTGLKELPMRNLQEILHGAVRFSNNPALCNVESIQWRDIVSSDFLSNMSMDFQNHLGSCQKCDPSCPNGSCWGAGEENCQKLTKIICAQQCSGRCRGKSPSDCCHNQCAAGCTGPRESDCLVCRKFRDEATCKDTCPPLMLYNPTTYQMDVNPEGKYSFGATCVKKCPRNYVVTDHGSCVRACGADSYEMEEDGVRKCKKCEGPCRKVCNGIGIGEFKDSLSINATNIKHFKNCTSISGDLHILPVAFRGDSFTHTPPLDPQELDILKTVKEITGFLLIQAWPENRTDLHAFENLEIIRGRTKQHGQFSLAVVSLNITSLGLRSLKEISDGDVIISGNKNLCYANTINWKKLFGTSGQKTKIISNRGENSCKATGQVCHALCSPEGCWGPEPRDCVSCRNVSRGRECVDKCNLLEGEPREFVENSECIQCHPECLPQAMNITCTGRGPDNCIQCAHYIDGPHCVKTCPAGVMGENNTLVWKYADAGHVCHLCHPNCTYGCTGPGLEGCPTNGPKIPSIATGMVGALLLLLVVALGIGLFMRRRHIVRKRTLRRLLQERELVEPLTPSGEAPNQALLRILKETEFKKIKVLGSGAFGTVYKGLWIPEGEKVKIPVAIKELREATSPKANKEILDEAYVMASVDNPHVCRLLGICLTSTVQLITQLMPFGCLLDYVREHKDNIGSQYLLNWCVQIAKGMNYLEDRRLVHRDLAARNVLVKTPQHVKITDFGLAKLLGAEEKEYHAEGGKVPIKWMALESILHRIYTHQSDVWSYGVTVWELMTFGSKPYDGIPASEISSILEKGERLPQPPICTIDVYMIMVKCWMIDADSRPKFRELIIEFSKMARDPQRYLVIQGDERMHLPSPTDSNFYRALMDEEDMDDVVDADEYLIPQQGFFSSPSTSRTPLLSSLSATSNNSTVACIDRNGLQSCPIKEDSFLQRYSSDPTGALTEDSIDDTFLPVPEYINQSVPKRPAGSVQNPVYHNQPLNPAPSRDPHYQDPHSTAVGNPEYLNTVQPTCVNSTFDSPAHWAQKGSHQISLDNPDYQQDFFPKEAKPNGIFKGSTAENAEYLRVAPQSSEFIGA
Sequence of Ba/F3-EGFR (L858R/T790M/C797S) (P00533 whole entry T790M/C797S/L858R): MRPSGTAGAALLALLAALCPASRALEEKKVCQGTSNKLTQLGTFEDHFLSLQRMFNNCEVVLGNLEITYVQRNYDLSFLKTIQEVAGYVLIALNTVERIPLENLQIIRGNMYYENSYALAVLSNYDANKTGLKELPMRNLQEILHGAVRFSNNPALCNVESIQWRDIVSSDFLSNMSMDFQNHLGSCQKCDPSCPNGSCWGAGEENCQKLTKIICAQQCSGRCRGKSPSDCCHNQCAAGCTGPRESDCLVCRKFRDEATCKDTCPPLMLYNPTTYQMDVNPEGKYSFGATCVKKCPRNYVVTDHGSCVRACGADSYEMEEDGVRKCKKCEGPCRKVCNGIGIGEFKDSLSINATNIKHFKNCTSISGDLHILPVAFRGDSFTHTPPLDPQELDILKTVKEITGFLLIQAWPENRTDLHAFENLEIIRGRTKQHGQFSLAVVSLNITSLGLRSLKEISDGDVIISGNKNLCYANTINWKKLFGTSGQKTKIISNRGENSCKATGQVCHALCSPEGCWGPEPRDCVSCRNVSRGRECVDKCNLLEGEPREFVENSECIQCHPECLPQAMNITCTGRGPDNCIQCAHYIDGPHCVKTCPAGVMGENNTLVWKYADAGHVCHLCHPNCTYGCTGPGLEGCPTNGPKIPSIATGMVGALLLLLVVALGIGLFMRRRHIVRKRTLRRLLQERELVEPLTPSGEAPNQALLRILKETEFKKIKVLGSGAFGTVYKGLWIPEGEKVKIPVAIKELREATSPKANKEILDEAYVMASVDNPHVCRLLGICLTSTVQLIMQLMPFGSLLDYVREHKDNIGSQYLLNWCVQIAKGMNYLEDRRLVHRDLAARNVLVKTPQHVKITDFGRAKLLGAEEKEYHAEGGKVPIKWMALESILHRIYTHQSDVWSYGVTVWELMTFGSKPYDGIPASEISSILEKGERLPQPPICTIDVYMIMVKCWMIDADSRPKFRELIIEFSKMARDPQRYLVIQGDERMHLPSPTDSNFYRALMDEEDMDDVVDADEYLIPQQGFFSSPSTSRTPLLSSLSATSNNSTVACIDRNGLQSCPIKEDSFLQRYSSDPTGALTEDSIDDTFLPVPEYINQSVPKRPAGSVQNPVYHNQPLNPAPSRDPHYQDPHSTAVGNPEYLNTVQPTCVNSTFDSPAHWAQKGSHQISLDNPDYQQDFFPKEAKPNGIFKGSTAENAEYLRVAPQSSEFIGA

Row | IC50 [1, 4] | IC50 [2, 5] | GI50 [3, 6] | GI50 (Ba/F3-EGFR (WT); [6]) | GI50 [3, 7] | GI50 (Ba/F3-EGFR (WT); [8]) | IC50 ([1]; Test Example 3, Table 10; same procedures as 3) in Test Example 1) | IC50 ([2]; Test Example 3, Table 9; same procedures as 2) in Test Example 1) | SMILES
1 | 0.00045 µM | 0.00036 µM | 0.283 µM | 1.92 µM |  |  |  |  | C#Cc1c(-c2cnc3ccccc3c2)c2c(N)ncnc2n1C12CCC(NC(=O)c3ccc4ncnn4c3)(CC1)C2 [Example 16, N-(4-(4-Amino-6-ethynyl-5-(quinolin-3-yl)-7H-pyrrolo[2,3-d]pyrimidin-7-yl)bicyclo-[2.2.1]heptan-1-yl)-[1.2.4]triazolo[1,5-a]pyrimidin-6-carboxamide]
2 | 0.0005 µM | 0.00052 µM |  |  | 0.27 µM | 2.97 µM |  |  | C#Cc1c(-c2cnc3ccccc3c2)c2c(N)ncnc2n1C12CCC(NC(=O)c3cnc(C)cn3)(CC1)C2 [Example 37, N-(4-(4-Amino-6-ethynyl-5-(quinolin-3-yl)-7H-pyrrolo[2,3-d]pyrimidin-7-yl)-bicyclo-[2.2.1]heptan-1-yl)-5-methylpyrazine-2-carboxamide]
3 | 0.00055 µM | 0.0005 µM | 0.348 µM | 2.96 µM |  |  |  |  | C#Cc1c(-c2cnc3ccccc3c2)c2c(N)ncnc2n1C12CCC(NC(=O)c3cncc(F)c3)(CC1)C2 [Example 35, N-(4-(4-Amino-6-ethynyl-5-(quinolin-3-yl)-7H-pyrrolo[2,3-d]pyrimidin-7-yl)-bicyclo-[2.2.1]heptan-1-yl)-5-fluoronicotinamide]
4 | 0.00067 µM |  |  |  | 0.91 µM | 3.6 µM |  |  | C#Cc1c(-c2cnc3ccccc3c2)c2c(N)ncnc2n1C12CCC(CNC(=O)c3ccnn3C)(CC1)C2 [Example 13, N-((4-(4-Amino-6-ethynyl-5-(quinolin-3-yl)-7H-pyrrolo[2,3-d]pyrimidin-7-yl)bicyclo-[2.2.1]heptan-1-yl)methyl)-1-methyl-1H-pyrazole-5-carboxamide]
5 | 0.0012 µM | 0.00047 µM | 0.754 µM | > 2 µM |  |  |  |  | C#Cc1c(-c2cnc3ccccc3c2)c2c(N)ncnc2n1C12CCC(NC(=O)C(F)F)(CC1)C2 [Example 27, N-(4-(4-Amino-6-ethynyl-5-(quinolin-3-yl)-7H-pyrrolo[2,3-d]pyrimidin-7-yl)bicyclo-[2.2.1]heptan-1-yl)-2,2-difluoroacetamide]
6 | 0.00046 µM | < 0.0003 µM |  |  | 0.223 µM | 2.49 µM |  |  | C#Cc1c(-c2cnc3ccccc3c2)c2c(N)ncnc2n1C12CCC(NC(=O)c3cnccn3)(CC1)C2 [Example 48]
7 | 0.00075 µM | 0.00036 µM | 0.658 µM | 2.36 µM |  |  |  |  | C#Cc1c(-c2cnc3ccccc3c2)c2c(N)ncnc2n1C12CCC(NC(C)=O)(CC1)C2 [Example 39, N-(4-(4-Amino-6-ethynyl-5-(quinolin-3-yl)-7H-pyrrolo[2,3-d]pyrimidin-7-yl)-bicyclo-[2.2.1]heptan-1-yl)acetamide]
8 | 0.00088 µM | 0.00069 µM | 0.978 µM | 3.29 µM |  |  |  |  | C#Cc1c(-c2cnc3ccccc3c2)c2c(N)ncnc2n1C12CCC(NC(=O)c3nccs3)(CC1)C2 [Example 53]
9 | 0.0014 µM | 0.00039 µM | 0.843 µM | 3.24 µM |  |  |  |  | C#Cc1c(-c2cnc3ccccc3c2)c2c(N)ncnc2n1C12CCC(NC(=O)c3ccco3)(CC1)C2 [Example 41]
10 | 0.264 µM | 0.102 µM |  |  | 2.26 µM | 2.46 µM |  |  | C=CC(=O)N1CC[C@@H](n2cc(-c3cnc4ccccc4c3)c3c(N)ncnc32)C1 [Comparative Example A, (R)-1-(3(4-Amino-5-(quinolin-3-yl)-7H-pyrrolo[2,3-d]pyrimidin-7-yl)pyrrolidin-1-yl) -prop-2-en-1-one, reference compound]
11 | 0.00067 µM |  |  |  | 0.305 µM | 3.4 µM |  |  | C#Cc1c(-c2cnc3ccccc3c2)c2c(N)ncnc2n1C12CCC(NC(=O)c3cccnc3)(CC1)C2 [Example 45]
12 |  |  | 0.672 µM | 2.99 µM |  |  | 0.00051 µM | < 0.0003 µM | C#Cc1c(-c2cnc3ccccc3c2)c2c(N)ncnc2n1C12CCC(NC(=O)[C@@H]3CN(C)CCO3)(CC1)C2 [Example 63, (S)-N-(4-(4-Amino-6-ethynyl-5-(quinolin-3-yl)-7H-pyrrolo[2,3-d]pyrimidin-7-yl) -bicyclo[2.2.1]heptan-1-yl)-4-methylmorpholine-2-carboxamide]
13 | 0.0007 µM | 0.00042 µM | 0.649 µM | 3.19 µM |  |  |  |  | C#Cc1c(-c2cnc3ccccc3c2)c2c(N)ncnc2n1C12CCC(NC(=O)c3nccn3C)(CC1)C2 [Example 23, N-(4-(4-Amino-6-ethynyl-5-(quinolin-3-yl)-7H-pyrrolo[2,3-d]pyrimidin-7-yl)bicyclo-[2.2.1]heptan-1-yl)-1-methyl-1H-imidazole-2-carboxamide]
14 | < 0.0003 µM | < 0.0003 µM |  |  | 0.529 µM | 3.33 µM |  |  | C#Cc1c(-c2cnc3ccccc3c2)c2c(N)ncnc2n1C12CCC(NC(=O)c3ccnnc3)(CC1)C2 [Example 3, N-(4-(4-Amino-6-ethynyl-5-(quinolin-3-yl)-7H-pyrrolo[2,3-d]pyrimidin-7-yl)bicyclo-[2.2.1]heptan-1-yl)pyridazine-4-carboxamide]
15 |  | < 0.0003 µM |  |  | 0.185 µM | 2.65 µM |  |  | C#Cc1c(-c2cnc3ccccc3c2)c2c(N)ncnc2n1C12CCC(NC(=O)c3cncnc3)(CC1)C2 [Example 2, N-(4-(4-Amino-6-ethynyl-5-(quinolin-3-yl)-7H-pyrrolo[2,3-d]pyrimidin-7-yl)bicyclo-[2.2.1]heptan-1-yl)pyrimidine-5-carboxamide]
16 | 0.00043 µM | 0.00041 µM |  |  | 0.204 µM | 2.41 µM |  |  | C#Cc1c(-c2cnc3ccccc3c2)c2c(N)ncnc2n1C12CCC(NC(=O)c3ncco3)(CC1)C2 [Example 46]
17 | 0.00078 µM | 0.00042 µM | 1.27 µM | 2.48 µM |  |  |  |  | C#Cc1c(-c2cnc3ccccc3c2)c2c(N)ncnc2n1C12CCC(NC(=O)c3cnns3)(CC1)C2 [Example 18, N-(4-(4-Amino-6-ethynyl-5-(quinolin-3-yl)-7H-pyrrolo[2,3-d]pyrimidin-7-yl)bicyclo-[2.2.1]heptan-1-yl)-1,2,3-thiadiazole-5-carboxamide]
18 | 0.00036 µM |  | 0.592 µM | > 2 µM |  |  |  |  | C#Cc1c(-c2cnc3ccccc3c2)c2c(N)ncnc2n1C12CCC(N3CCOCC3)(CC1)C2 [Example 9, 6-Ethynyl-7-(4-morpholinobicyclo[2.2.1]heptan-1-yl)-5-(quinolin-3-yl)-7H-pyrrolo[2,3-d]pyrimidine-4-amine]
19 | 0.00079 µM |  |  |  | 0.952 µM | 3.5 µM |  |  | C#Cc1c(-c2cnc3ccccc3c2)c2c(N)ncnc2n1C12CCC(CNC(=O)c3cnc(C)cn3)(CC1)C2 [Example 14, N-((4-(4-Amino-6-ethynyl-5-(quinolin-3-yl)-7H-pyrrolo[2,3-d]pyrimidin-7-yl)bicyclo-[2.2.1]heptan-1-yl)methyl)-5-methylpyrazine-2-carboxamide]
20 | 0.00073 µM |  |  |  | 0.417 µM | 3.29 µM |  |  | C#Cc1c(-c2cnc3ccccc3c2)c2c(N)ncnc2n1C12CCC(NC(=O)c3ccncc3)(CC1)C2 [Example 43]
